We go through one compound from US20230391727A1, “ANALOGUES OF PENTAMIDINE AND METHODS FOR TREATING INFECTIONS” (Auransa Inc., priority 2020, published 2023).

In brackets after ≈: the same amount, converted by molar mass. Like-named read-outs stand apart in the source and are kept apart here.

The subject of one assay is NCI H69 cells. Nature of the assay: CellTiter-Glo cell viability assay (cytotoxicity), 8 days. Type of assay: cell-based. To be noted: Homo sapiens, 192 h, full growth media. As for the experimental part:
The experiment tested pentamidine, Compounds 1-6 in full growth media for 8 days. NCI H69 cells were initially treated with the test compounds on Day 0, and the cells were then replenished with fresh compound dilutions on Day 3. Pentamidine and Compound 1 were tested at 9 concentration points: 100 μM, 33.33 μM, 11.11 μM, 3.70 μM, 1.23 μM, […], 0.05 μM, and 0.02 μM (final DMSO concentration=0.5%). The raw data values from the CellTiter-Glo™ cell viability assay expressed in relative luminescence units were normalized to the vehicle for each individual plate, and any reduction in luminescence indicated a decrease in viability (%). The data was analyzed in GraphPad PRISM using a non-linear sigmoidal plot with variable slope (asymmetric four-point […]), and an IC50 value for each compound was generated based on the normalized dose-response curves and shown in Table 1.

In assay [1] the test system is Cryptococcus neoformans CN3. Description: Anti-fungal MIC assay. It counts as cell-based. An outline of the steps: (§1)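 First, DMSO stocks (6400 μg/ml, 100× highest test level) were diluted to 2× in RPMI-1640 with MOPS at pH 7.0. Trays were then held at 35° C without agitation.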
The next assay has as its system Candida glabrata 05-761. Description: Anti-fungal MIC assay. It counts as cell-based. In a few lines:
as §1

Another assay relates to K. pneumoniae. Nature of the assay: Checkerboard assay with rifampicin (FIG. 1). Type of assay: cell-based, Klebsiella pneumoniae. An excerpt:
As control, pentamidine was used for its synergistic, indifferent or antagonistic interaction with rifampicin in similar conditions. […] In FIG. 1, dark wells indicated growth inhibition of K. pneumoniae and corresponding antibacterial activities of these compounds.

A further assay has as its system S. aureus ATCC 27660. Description: MIC assay against gram positive S. aureus. Type of assay: cell-based. The conditions noted are these: Staphylococcus aureus, ATCC27660. As for the experimental part: (§2) Then the compound stocks were serially 2-fold diluted in a v-bottom 96-well plate to make 100-fold working solutions. One day before the test, −80° C. glycerol stock of S. aureus strains were streaked on cation-adjusted Mueller-Hinton agar (CAMHA) plates. On the day of test, fresh bacterial colonies were suspended into sterile saline to an OD600 nm of ˜0.1 (equivalent to 0.5 McFarland). The bacterial suspension was firstly 20-fold followed by 50-fold diluted in cation-adjusted Mueller-Hinton broth (CAMHB) plates to 1×10^6 CFU/PO. 198 ul of the inoculum was added into the round-bottom 96-well plates prefilled with 2 ul of 100-fold compound working solutions. After incubating at 35 +/−2° C. in ambient atmosphere for 18-24 h, MIC was recorded as the lowest concentration under which no visible bacterial growth was observed.

The test system of another assay is S. aureus ATCC 43300. Nature of the assay: MIC assay against gram positive S. aureus. It counts as cell-based. The conditions noted are these: Staphylococcus aureus, ATCC43300. On the procedure:
as §2

The term IC50 denotes the concentration at which inhibition is half-maximal. As usually defined, the MIC is the least concentration at which growth counts as inhibited. Compound `N=C(N)c1ccc(CC[C@H]2CCC[C@@H](CCc3ccc(C(=N)N)cc3)C2)cc1` [Compound 3, 4,4′-(2,2′-((1R,3S)-cyclohexane-1,3-diyl)bis(ethane-2,1-diyl))dibenzimidamide] yielded a 50% inhibitory concentration (IC50) in the assay on NCI H69 cells of 0.8 µM. Also, the MIC amounted to 0.5 µg/mL (≈ 1.33 µM) in assay [1] (read-out: MIC, 50% growth inhibition); 0.5 µg/mL (≈ 1.33 µM) in assay [1] (read-out: MIC, 100% growth inhibition); 1 µg/mL (≈ 2.66 µM) in the assay with Candida glabrata 05-761 (Nakaseomyces glabratus, 05761, read-out: MIC, 50% growth inhibition); 2 µg/mL (≈ 5.31 µM) in the assay on Candida glabrata 05-761 (Nakaseomyces glabratus, 05761, read-out: MIC, 100% growth inhibition); 0.5 µg/mL (≈ 1.33 µM) against S. aureus ATCC 27660; 0.5 µg/mL (≈ 1.33 µM) against S. aureus ATCC 43300. Further, the “synergistic effect with rifampicin, growth inhibition, compared to pentamidine” value with K. pneumoniae is given as “superior synergistic effects with rifampicin than pentamidine with rifampicin”.
